Several values for one entry are separate records, joined by “and”; a condition that tells them apart may be missing. Equal entries are not always repeated.
What was measured:
[1] = Safety: treatment-emergent adverse events; assay type: in vivo, human
[2] = system: phospho-4E-BP1 Thr37/46 (p4E-BP1); test: Immunohistochemistry of paired tumor tissues; assay type: in vivo, human; details: mean (±SD)
[3] = Everolimus pharmacokinetic analysis in whole blood; details: for Tmax: NSCLC patients
[4] = system: resectable non-small cell lung cancer (NSCLC); test: Metabolic response on paired 18F-FDG PET/CT; assay type: in vivo, human; details: for Change in metabolic activity (SUVmax): up to 28 days, control 29.0%; for Change in metabolic activity (SUVmax) / Mean reduction in SUVmax (percent change of initial SUVmax): p=0.014; for Mean reduction in SUVmax (percent change of initial SUVmax): control mean increase of 29%
S6 = test: Immunohistochemistry of paired tumor tissues; assay type: in vivo, human; details: mean (±SD)
pS6/S6 = test: Immunohistochemistry of paired tumor tissues; assay type: in vivo, human; details: mean (±SD)
Bim = test: Immunohistochemistry of tumor tissues; details: for BIM expression immunoscore in post-treatment samples: control 48.6
p70S6K = test: Immunohistochemistry of paired tumor tissues; assay type: in vivo, human; details: mean (±SD)
[5] = system: phospho-mTOR Ser2448 (pMTOR); test: Immunohistochemistry of paired tumor tissues; assay type: in vivo, human; details: mean (±SD)
BCL2L-11 gene = test: Gene expression profiling by RNA-Seq, baseline vs post-treatment tumor; assay type: in vivo, human; details: responder with sarcomatoid NSCLC, 10mg everolimus
[6] = system: resectable non-small cell lung cancer (NSCLC); test: Anatomic response, tumor size; assay type: in vivo, human
[7] = system: phospho-eIF4E Ser209 (pe1f4e); test: Immunohistochemistry of paired tumor tissues; assay type: in vivo, human; details: mean (±SD)
[8] = system: phospho-S6 Ser235/236 (pS6); test: Immunohistochemistry of paired tumor tissues; assay type: in vivo, human; details: mean (±SD)
[9] = system: phospho-Akt Ser473 (pAKT); test: Immunohistochemistry of tumor tissues; assay type: in vivo, human
[10] = human, whole blood, oral, 10 mg
[11] = dose of everolimus 5, listed as Everolimus
[12] = dose of everolimus 10, listed as Everolimus
[13] = dose of everolimus 10, mean (±SD)

## CO[C@H]1C[C@@H]2CC[C@@H](C)[C@@](O)(O2)C(=O)C(=O)N2CCCC[C@H]2C(=O)O[C@H]([C@H](C)C[C@@H]2CC[C@@H](OCCO)[C@H](OC)C2)CC(=O)[C@H](C)/C=C(\C)[C@@H](O)[C@@H](OC)C(=O)[C@H](C)C[C@H](C)/C=C/C=C/C=C/1C [everolimus]
[1]; CTCAE version 3, patients treated with everolimus (5 or 10 mg daily)
  MRSA Bacteremia, Grade 3: 1
[1]; in vivo
  Median length of hospital stay (LOS) after resection: 5 days
  Range of length of hospital stay (LOS) after resection: 3 to 43 days
[2]; dose of everolimus 5
  p4E-BP1 percent change in immunoscore, post-treatment relative to baseline: 150 (±NA) %
[2]; dose of everolimus 10
  p4E-BP1 percent change in immunoscore, post-treatment relative to baseline: −78.75 (± 14.36) %
[3]; 5 mg daily (n=12), whole blood
  Tmax: 2 (1 – 2) hr.
[3]; 10 mg daily (n=7), whole blood
  Day 21 Cmax: 51.5 ± 9.9 ng/mL
  Tmax: 2 (1 – 2) hr.
[3]; at either dose level (5mg, 10mg), days 8 and 21 vs day 1
  Accumulation: no significant accumulation
[3]; human, whole blood, oral, 5 mg
  concentration at 8 day: 6.3 ± 2.9 ng/mL
  concentration at 21 day: 5.7 ± 2.3 ng/mL
  half-life: 26.5 h
[3]; human, whole blood, oral, 5 mg, Day 1 Cmax, 5 mg daily (n=12), whole blood
  Cmax: 29.2 ± 9.9 ng/mL
[3]; human, whole blood, oral, 5 mg, Day 8 Cmax, 5 mg daily (n=12), whole blood
  Cmax: 42.1 ± 17.2 ng/mL
[3]; human, whole blood, oral, 5 mg, Day 21 AUC0-24, 5 mg daily (n=12), whole blood
  AUC(0-t): 205 ± 87.4 ng·h/mL
[3]; [10]
  concentration at 8 day: 17.8 ± 7.6 ng/mL
  concentration at 21 day: 13.7 ± 9.2 ng/mL
[3]; human, whole blood, oral, 10 mg, Day 8 AUC0-24, 10 mg daily (n=7), whole blood
  AUC(0-t): 579 ± 186 ng·h/mL
[3]; human, whole blood, oral, 10 mg, Day 21 AUC0-24, 10 mg daily (n=7), whole blood
  AUC(0-t): 506 ± 208 ng·h/mL
[4]; 5mg cohort
  Change in metabolic activity (SUVmax): −21%
[4]; 5mg everolimus group
  Partial metabolic response (PMR) rate, PERCIST: 36%
  Stable metabolic disease (SMD) rate, PERCIST: 64%
[4]; 10mg cohort
  Change in metabolic activity (SUVmax): −24%
[4]; 10mg everolimus group
  Partial metabolic response (PMR) rate, PERCIST: 50%
  Stable metabolic disease (SMD) rate, PERCIST: 50%
[4]; RAS mutant tumors treated with everolimus (10mg), control 88% increase, p=0.218
  Reduction in mean metabolic activity, RAS mutant tumors: 30%
[4]; everolimus 5mg
  Mean reduction in SUVmax (percent change of initial SUVmax): 21%
[4]; everolimus 10mg
  Mean reduction in SUVmax (percent change of initial SUVmax): 24%
[4]; everolimus (10mg) group, control 12% increase, p=0.039
  Reduction in metabolic activity, non-RAS mutant tumors: 21%
[4]; one patient, sarcomatoid NSCLC, 10mg everolimus for 3 weeks
  Reduction in SUVmax, single patient (near complete metabolic response): 74%
S6; dose of everolimus 5
  S6 percent change in immunoscore, post-treatment relative to baseline: −13.7%
S6; [11]
  S6 percent change in immunoscore, post-treatment relative to baseline: −13.69 (± 144.05) %
S6; dose of everolimus 10
  S6 percent change in immunoscore, post-treatment relative to baseline: −77.0% and −77.03%
S6; [12]
  S6 percent change in immunoscore, post-treatment relative to baseline: −77.03 (± 16.02) %
pS6/S6; dose of everolimus 5
  pS6/S6 percent change, post-treatment relative to baseline: −100 (±NA) %
pS6/S6; dose of everolimus 10
  pS6/S6 percent change, post-treatment relative to baseline: 128.57 (± 219.26) %
Bim; 5mg everolimus
  BIM expression immunoscore in post-treatment samples: 84.3
Bim; 10mg everolimus
  BIM expression immunoscore in post-treatment samples: 80.5
Bim; [13]
  Bim percent change in immunoscore, post-treatment relative to baseline: −21.76 (± 60.07) %
Bim; post-treatment samples, treated patients vs control
  BIM expression immunoscore, treated compared to control patients: ~2 fold
p70S6K; dose of everolimus 5
  p70s6k percent change in immunoscore, post-treatment relative to baseline: 137.14 (± 442.07) %
p70S6K; dose of everolimus 10
  p70s6k percent change in immunoscore, post-treatment relative to baseline: −78.62 (± 22.79) %
[5]; dose of everolimus 5
  pMTOR percent change in immunoscore, post-treatment relative to baseline: 30 (± 153.95) %
[5]; dose of everolimus 10
  pMTOR percent change in immunoscore, post-treatment relative to baseline: −63.82 (± 51.3) %
BCL2L-11 gene
  Increase in BCL2L-11 gene (BIM) expression, post-treatment vs baseline sample: 6 fold
[6]; 5mg everolimus
  Patients achieving SD (RECIST): 82%
  Patients with best response of PD (RECIST): 18%
[6]; 10mg cohort, control 10.1%, p=0.047
  Change in tumor size: −11.6%
[6]; 10mg everolimus group
  Patients meeting RECIST criteria for partial response: 9%
  Patients with SD (RECIST): 91%
[6]; 10mg everolimus group, partial response
  Tumor shrinkage in partial response: 30%
[7]; dose of everolimus 5
  pe1f4e percent change in immunoscore, post-treatment relative to baseline: 2.78 (± 5.56) %
[7]; dose of everolimus 10
  pe1f4e percent change in immunoscore, post-treatment relative to baseline: −27.13 (± 42.17) %
[8]; dose of everolimus 5
  pS6 percent change in immunoscore, post-treatment relative to baseline: −61.57%
[8]; [11]
  pS6 percent change in immunoscore, post-treatment relative to baseline: −61.57 (± 35.8) %
[8]; dose of everolimus 10
  pS6 percent change in immunoscore, post-treatment relative to baseline: −47.21%
[8]; [12]
  pS6 percent change in immunoscore, post-treatment relative to baseline: −47.21 (± 44.96) %
[9]; 5 mg cohort, baseline 0.3
  Unmatched mean immunoscore, nuclear pAKT staining, post-treatment: 15
[9]; 5 mg cohort, baseline 13.1
  Unmatched mean immunoscore, cytoplasmic pAKT staining, post-treatment: 47.5
[9]; 10 mg cohort, baseline 0.01
  Unmatched mean immunoscore, nuclear pAKT staining, post-treatment: 4.4
[9]; 10 mg cohort, baseline 0.42
  Unmatched mean immunoscore, cytoplasmic pAKT staining, post-treatment: 2.34
[9]; [13]
  PAKT Nuclear percent change in immunoscore, post-treatment relative to baseline: 0 (± 0) %

Source: publication PMC4401630 (Clinical cancer research : an official journal of the …, 2015)
